Experimental data: PubChem BioAssay AID330 (DTP/NCI, 2004)
“And” between values parts separate entries of the source, which are not always exact repeats. Identical values can stand only once. Toxic doses and inconclusive results are not listed. Rule for the calls: active = survival T/C of 150% or more; inactive = T/C below 125% in these data.

System: P388 leukemia ip, CD2F1 mice, survival T/C
Experiment: NCI In Vivo Anticancer Drug Screen. Data for tumor model P388 Leukemia (intraperitoneal) in CD2F1 (CDF1) mice
Details: endpoint: median survival time, higher = longer survival
Method in brief: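 Mice carrying the transplanted tumor received test compound or vehicle. Survival was recorded in each group, and the value is the treated-group measurement divided by that of the vehicle-treated control group.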

[1] = dose: 50.0 mg/kg/injection, schedule: Q01DX009 (ip), vehicle: Klucel (hydroxypropylcellulose) (HPC)
[2] = dose: 100.0 mg/kg/injection, schedule: Q01DX009 (ip), vehicle: Klucel (hydroxypropylcellulose) (HPC)
[3] = dose: 200.0 mg/kg/injection, schedule: Q01DX009 (ip), vehicle: Klucel (hydroxypropylcellulose) (HPC)
[4] = dose: 50.0 mg/kg/injection, schedule: Q01DX005 (ip), vehicle: Klucel (hydroxypropylcellulose) (HPC)
[5] = dose: 100.0 mg/kg/injection, schedule: Q01DX005 (ip), vehicle: Klucel (hydroxypropylcellulose) (HPC)
[6] = dose: 200.0 mg/kg/injection, schedule: Q01DX005 (ip), vehicle: Klucel (hydroxypropylcellulose) (HPC)
[7] = dose: 60.0 mg/kg/injection, schedule: Q01DX005 (ip), vehicle: saline with Tween-80
[8] = dose: 120.0 mg/kg/injection, schedule: Q01DX005 (ip), vehicle: saline with Tween-80
[9] = dose: 240.0 mg/kg/injection, schedule: Q01DX005 (ip), vehicle: saline with Tween-80

Measured: T/C

CC(=O)Nc1ccc(C)c2ccccc12
inactive: dose: 75.0 mg/kg/injection, schedule: Q04DX003 (ip), vehicle: saline with Tween-80 100 % of control | dose: 150.0 mg/kg/injection, schedule: Q04DX003 (ip), vehicle: saline with Tween-80 104 % of control | dose: 300.0 mg/kg/injection, schedule: Q04DX003 (ip), vehicle: saline with Tween-80 108 % of control

CNC(=O)OCc1snc(-c2ccccc2)c1COC(=O)NC
inactive: dose: 12.5 mg/kg/injection, schedule: Q01DX005 (ip), vehicle: distilled water + Tween-80 99 % of control | dose: 25.0 mg/kg/injection, schedule: Q01DX005 (ip), vehicle: distilled water + Tween-80 101 % of control | dose: 50.0 mg/kg/injection, schedule: Q01DX005 (ip), vehicle: distilled water + Tween-80 99 % of control | dose: 100.0 mg/kg/injection, schedule: Q01DX005 (ip), vehicle: distilled water + Tween-80 96 % of control | dose: 200.0 mg/kg/injection, schedule: Q01DX005 (ip), vehicle: distilled water + Tween-80 108 % of control

COc1ccc(CNC(=O)C2C(=O)C(=O)N(Cc3ccc(OC)c(OC)c3)C2=O)cc1OC (stereo not given)
inactive: [1] 105 % of control | [2] 96 % of control | [3] 103 % of control

NC(N)=N/N=C\c1ccnc2ccccc12
inactive: dose: 7.5 mg/kg/injection, schedule: Q01DX005 (ip), vehicle: saline 100 % of control | dose: 15.0 mg/kg/injection, schedule: Q01DX005 (ip), vehicle: saline 105 % of control | dose: 30.0 mg/kg/injection, schedule: Q01DX005 (ip), vehicle: saline 105 % of control | dose: 60.0 mg/kg/injection, schedule: Q01DX005 (ip), vehicle: saline 105 % of control

[Ni+2].[O-]c1ccccc1C=NCCCCCCN=Cc1ccccc1[O-]
inactive: dose: 50.0 mg/kg/injection, schedule: Q04DX002 (ip), vehicle: saline with Tween-80 94 % of control | dose: 100.0 mg/kg/injection, schedule: Q04DX002 (ip), vehicle: saline with Tween-80 93 % of control | dose: 200.0 mg/kg/injection, schedule: Q04DX002 (ip), vehicle: saline with Tween-80 93 % of control

COc1ccc(-c2nnc3cc(C)n4nnnc4n23)cc1OC
inactive: [4] 100 % of control | [5] 96 % of control | [6] 94 % of control

CC1OC(O[C@@H]2OC=C(C=O)[C@@]3(O)CC[C@H](C)[C@@H]23)C(O)C(O)C1O (stereo not given in full)
inactive: dose: 6.25 mg/kg/injection, schedule: Q01DX005 (ip), vehicle: Klucel (hydroxypropylcellulose) (HPC) 100 % of control | dose: 12.5 mg/kg/injection, schedule: Q01DX005 (ip), vehicle: Klucel (hydroxypropylcellulose) (HPC) 116 % of control | dose: 25.0 mg/kg/injection, schedule: Q01DX005 (ip), vehicle: Klucel (hydroxypropylcellulose) (HPC) 95 % of control | [4] 87 % of control

O=[N+]([O-])/C=C/c1cc2ccc3ccccc3c2[nH]1
inactive: [7] 94 % of control | [8] 89 % of control | [9] 102 % of control

COc1c2c(c(OC)c3c1C(=O)c1ccccc1C3=O)C(=O)CCC2
inactive: dose: 30.0 mg/kg/injection, schedule: Q01DX005 (ip), vehicle: saline with Tween-80 93 % of control | [7] 91 % of control | [8] 87 % of control | [9] 88 % of control

CNC(=O)CCCCCNC(C)=O
inactive: [4] 98 % of control | [5] 95 % of control | [6] 90 % of control | dose: 400.0 mg/kg/injection, schedule: Q01DX005 (ip), vehicle: Klucel (hydroxypropylcellulose) (HPC) 97 % of control

CC(=O)OC1SCC2OC(=O)OC21 (stereo not given)
inactive: dose: 50.0 mg/kg/injection, schedule: Q01DX009 (ip), vehicle: saline with Tween-80 108 % of control | dose: 100.0 mg/kg/injection, schedule: Q01DX009 (ip), vehicle: saline with Tween-80 95 % of control | dose: 200.0 mg/kg/injection, schedule: Q01DX009 (ip), vehicle: saline with Tween-80 96 % of control

COc1cc2c(c(OC)c1OC)-c1ccc(SC)c(=O)cc1C(N(C)C(=O)C(F)(F)F)CC2 (stereo not given)
inactive: dose: 1.25 mg/kg/injection, schedule: Q01DX009 (ip), vehicle: Klucel (hydroxypropylcellulose) (HPC) 109 % of control | dose: 2.5 mg/kg/injection, schedule: Q01DX009 (ip), vehicle: Klucel (hydroxypropylcellulose) (HPC) 111 % of control and 122 % of control | dose: 20.0 mg/kg/injection, schedule: Q01DX009 (ip), vehicle: Klucel (hydroxypropylcellulose) (HPC) 89 % of control

COc1ccc2cc3ccncc3cc2c1OC
inactive: dose: 12.5 mg/kg/injection, schedule: Q01DX009 (ip), vehicle: water 96 % of control | dose: 25.0 mg/kg/injection, schedule: Q01DX009 (ip), vehicle: water 99 % of control | dose: 50.0 mg/kg/injection, schedule: Q01DX009 (ip), vehicle: water 99 % of control | dose: 100.0 mg/kg/injection, schedule: Q01DX009 (ip), vehicle: water 97 % of control | dose: 200.0 mg/kg/injection, schedule: Q01DX009 (ip), vehicle: water 105 % of control

COC(=O)CCC1=CC(=O)C(OC)=CC1=O
inactive: dose: 6.25 mg/kg/injection, schedule: Q01DX009 (ip), vehicle: saline with Tween-80 110 % of control | dose: 12.5 mg/kg/injection, schedule: Q01DX009 (ip), vehicle: saline with Tween-80 97 % of control | dose: 25.0 mg/kg/injection, schedule: Q01DX009 (ip), vehicle: saline with Tween-80 99 % of control

CN(C)S(=O)(=O)N1CCOCC1
inactive: dose: 50.0 mg/kg/injection, schedule: Q04DX003 (ip), vehicle: Klucel (hydroxypropylcellulose) (HPC) 95 % of control | dose: 100.0 mg/kg/injection, schedule: Q04DX003 (ip), vehicle: Klucel (hydroxypropylcellulose) (HPC) 101 % of control | dose: 200.0 mg/kg/injection, schedule: Q04DX003 (ip), vehicle: Klucel (hydroxypropylcellulose) (HPC) 93 % of control | dose: 400.0 mg/kg/injection, schedule: Q04DX003 (ip), vehicle: Klucel (hydroxypropylcellulose) (HPC) 110 % of control

CCOC(=O)NC(=S)c1cccn1C
inactive: [4] 98 % of control | [5] 103 % of control | [6] 105 % of control

CCCN1C(=O)C2C3C=CC(C2C1=O)C1C2C(=O)N(CCC)C(=O)C2C31 (stereo not given)
inactive: dose: 100.0 mg/kg/injection, schedule: Q01DX001 (ip), vehicle: saline with Tween-80 92 % of control | dose: 200.0 mg/kg/injection, schedule: Q01DX001 (ip), vehicle: saline with Tween-80 96 % of control | dose: 400.0 mg/kg/injection, schedule: Q01DX001 (ip), vehicle: saline with Tween-80 101 % of control

O=C(OCC(Cl)(Cl)Cl)N1[C@@H]2C=C[C@@H](N1C(=O)OCC(Cl)(Cl)Cl)[C@@]13CCCCC21O3 (stereo not given in full)
inactive: [4] 102 % of control | [5] 108 % of control | [6] 103 % of control

N=C(N)Cc1ccc(NC(=O)c2ccc(C(=O)Nc3ccc(CC(=N)N)cc3)cc2)cc1
inactive: dose: 9.37 mg/kg/injection, schedule: Q01DX001 (ip), vehicle: saline with Tween-80 120 % of control | dose: 18.75 mg/kg/injection, schedule: Q01DX001 (ip), vehicle: saline with Tween-80 120 % of control | dose: 37.5 mg/kg/injection, schedule: Q01DX001 (ip), vehicle: saline with Tween-80 115 % of control

c1ccc2c3c(ccc2c1)OP1(=NP(N2CC2)(N2CC2)=NP(N2CC2)(N2CC2)=N1)Oc1ccc2ccccc2c1-3
inactive: dose: 100.0 mg/kg/injection, schedule: Q04DX002 (ip), vehicle: Klucel (hydroxypropylcellulose) (HPC) 101 % of control and 117 % of control | dose: 200.0 mg/kg/injection, schedule: Q04DX002 (ip), vehicle: Klucel (hydroxypropylcellulose) (HPC) 100 % of control | dose: 400.0 mg/kg/injection, schedule: Q04DX002 (ip), vehicle: Klucel (hydroxypropylcellulose) (HPC) 108 % of control | dose: 800.0 mg/kg/injection, schedule: Q04DX002 (ip), vehicle: Klucel (hydroxypropylcellulose) (HPC) 102 % of control

CCCCCCC[CH2][Sn]([Cl])([CH2]CCCCCCC)[O][Sn]([CH2]CCCCCCC)([CH2]CCCCCCC)[O]C
inactive: dose: 100.0 mg/kg/injection, schedule: Q04DX003 (ip), vehicle: saline 101 % of control | dose: 200.0 mg/kg/injection, schedule: Q04DX003 (ip), vehicle: saline 96 % of control | dose: 400.0 mg/kg/injection, schedule: Q04DX003 (ip), vehicle: saline 98 % of control

NC(CCC(N)C(=O)O)C(=O)O (stereo not given)
inactive: dose: 25.0 mg/kg/injection, schedule: Q01DX009 (ip), vehicle: Klucel (hydroxypropylcellulose) (HPC) 97 % of control | [1] 93 % of control | [2] 87 % of control | [3] 86 % of control

COC1=Cc2c(oc3c(C(C)(C)C)cc(OC)cc23)OC(C(C)(C)C)=C1
inactive: dose: 50.0 mg/kg/injection, schedule: Q01DX009 (ip), vehicle: saline 104 % of control | dose: 100.0 mg/kg/injection, schedule: Q01DX009 (ip), vehicle: saline 100 % of control | dose: 200.0 mg/kg/injection, schedule: Q01DX009 (ip), vehicle: saline 100 % of control
